From patent US11897851B2, “Heterocyclic GLP-1 agonists” (Gasherbrum Bio, Inc., priority 2021, dated 2024)

biological target: T1, GLP-1 Receptor (Homo sapiens, UniProt P43220); experiment: GLP-1R agonist cAMP stimulation assay (HEK293/GLP1R/CRE-LUC cells, Cisbio cAMP dynamic 2 kit); assay type: cell-based; settings: HEK293/CRE-Luc cell line stably expressing the GLP-1 Receptor; 1000 cells/well; 30 min at 37° C.; 0.5 mM IBMX, 0.1% BSA; read-out: GLP1R cAMP Stimulation DR: EC50;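 note: compounds tested in half-log serial dilution, cAMP detected with cAMP-d2 and anti-cAMP cryptate antibody reagents after 1 h at room temperature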
T1 construct: host or cells: HEK293/GLP1R/CRE-LUC (HEK293/CRE-Luc stably expressing the GLP-1 receptor)
T1 sequence (P43220 24-463, species assumed): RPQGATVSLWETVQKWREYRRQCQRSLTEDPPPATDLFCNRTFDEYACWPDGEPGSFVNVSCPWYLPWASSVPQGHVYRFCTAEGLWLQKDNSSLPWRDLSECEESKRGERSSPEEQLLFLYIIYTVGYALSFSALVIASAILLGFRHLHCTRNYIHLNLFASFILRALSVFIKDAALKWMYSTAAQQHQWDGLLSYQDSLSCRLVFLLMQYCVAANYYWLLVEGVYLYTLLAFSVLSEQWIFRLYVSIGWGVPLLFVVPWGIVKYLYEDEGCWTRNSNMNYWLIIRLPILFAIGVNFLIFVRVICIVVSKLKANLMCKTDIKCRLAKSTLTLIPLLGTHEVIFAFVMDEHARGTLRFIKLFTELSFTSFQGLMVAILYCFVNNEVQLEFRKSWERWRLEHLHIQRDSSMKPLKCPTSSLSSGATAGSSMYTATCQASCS

Row | SMILES | EC50 [pM]
1 | C/C(=C\c1cnc(CN2CCC(c3cccc4c3OC(c3ccc(Cl)cc3F)O4)CC2)n1C[C@@H]1CCO1)C(=O)O (stereo partly drawn) [Compound 132a, (E)-3-(2-((4-(2-(4-chloro-2-fluorophenyl)benzo[d][1,3]dioxol-4-yl)piperidin-1-yl)methyl)-1-((S)-oxetan-2-ylmethyl)-1H-imidazol-5-yl)-2-methylacrylic acid] | 1600
2 | C/C(=C\c1cnc(CN2CCC(c3cccc4c3O[C@@H](c3ccc(Cl)cc3)O4)CC2)n1C[C@@H]1CCO1)C(=O)O [Compound 133a, (E)-3-(2-((4-((S)-2-(4-chlorophenyl)benzo[d][1,3]dioxol-4-yl)piperidin-1-yl)methyl)-1-(((S)-oxetan-2-yl)methyl)-1H-imidazol-5-yl)-2-methylacrylic acid] | 5400
3 | C/C(=C\c1cnc(CN2CCC(c3cccc4c3O[C@H](c3ccc(Cl)cc3)O4)CC2)n1C[C@@H]1CCO1)C(=O)O [Compound 133b, (E)-3-(2-((4-((R)-2-(4-chlorophenyl)benzo[d][1,3]dioxol-4-yl)piperidin-1-yl)methyl)-1-(((S)-oxetan-2-yl)methyl)-1H-imidazol-5-yl)-2-methylacrylic acid] | 48000
4 | C/C(=C\c1cnc(CN2CCC(c3cccc4c3O[C@@](C)(c3ccc(Cl)cc3)O4)CC2)n1C[C@@H]1CCO1)C(=O)O [Compound 134a, (E)-3-(2-((4-((S)-2-(4-chlorophenyl)-2-methylbenzo [d][1,3]dioxol-4-yl)piperidin-1-yl)methyl)-1-(((S)-oxetan-2-yl)methyl)-1H-imidazol-5-yl)-2-methylacrylic acid] | 210
5 | C/C(=C\c1cnc(CN2CCC(c3cccc4c3O[C@](C)(c3ccc(Cl)cc3)O4)CC2)n1C[C@@H]1CCO1)C(=O)O [Compound 134b, (E)-3-(2-((4-((R)-2-(4-chlorophenyl)-2-methylbenzo[d][1,3]dioxol-4-yl)piperidin-1-yl)methyl)-1-(((S)-oxetan-2-yl)methyl)-1H-imidazol-5-yl)-2-methylacrylic acid] | 17000
6 | CCn1cncc1Cn1c(/C=C(\C)C(=O)O)cnc1CN1CCC(c2cccc3c2OC(C)(c2ccc(Cl)cc2F)O3)CC1 (stereo not drawn) [Compound 138, (E)-3-(2-((4-(2-(4-chloro-2-fluorophenyl)-2-methylbenzo[d][1,3]dioxol-4-yl)piperidin-1-yl)methyl)-1-((1-ethyl-1H-imidazol-5-yl)methyl)-1H-imidazol-5-yl)-2-methylacrylic acid] | 3.4
7 | COCCn1c(/C=C/C(=O)O)cnc1CN1CCC(c2cccc3c2OC(C)(c2ccc(Cl)cc2F)O3)CC1 (stereo not drawn) [Compound 141, (E)-3-(2-((4-(2-(4-chloro-2-fluorophenyl)-2-methylbenzo[d][1,3]dioxol-4-yl)piperidin-1-yl)methyl)-1-(2-methoxyethyl)-1H-imidazol-5-yl)acrylic acid] | 12
8 | CCn1cncc1Cn1c(/C=C/C(=O)O)nnc1CN1CCC(c2cccc3c2OC(C)(c2ccc(Cl)cc2F)O3)CC1 (stereo not drawn) [Compound 142, (E)-3-(5-((4-(2-(4-chloro-2-fluorophenyl)-2-methylbenzo[d][1,3]dioxol-4-yl)piperidin-1-yl)methyl)-4-((1-ethyl-1H-imidazol-5-yl)methyl)-4H-1,2,4-triazol-3-yl)acrylic acid] | 12
9 | CCn1cncc1Cn1c(CCC(=O)O)cnc1CN1CCC(c2cccc3c2OC(C)(c2ccc(Cl)cc2F)O3)CC1 (stereo not drawn) [Compound 143, 3-(2-((4-(2-(4-chloro-2-fluorophenyl)-2-methylbenzo[d][1,3]dioxol-4-yl)piperidin-1-yl)methyl)-1-((1-ethyl-1H-imidazol-5-yl)methyl)-1H-imidazol-5-yl)propanoic acid] | 5.9
10 | CCn1cncc1Cn1c(CCC(=O)O)nnc1CN1CCC(c2cccc3c2OC(C)(c2ccc(Cl)cc2F)O3)CC1 (stereo not drawn) [Compound 144, 3-(5-((4-(2-(4-chloro-2-fluorophenyl)-2-methylbenzo[d][1,3]dioxol-4-yl)piperidin-1-yl)methyl)-4-((1-ethyl-1H-imidazol-5-yl)methyl)-4H-1,2,4-triazol-3-yl)propanoic acid] | 15
11 | C[C@]1(c2ccc(Cl)cc2F)Oc2cccc(C3CCN(Cc4ncc(/C=C/C(=O)O)n4CCOC(F)(F)F)CC3)c2O1 [Compound 145, (S,E)-3-(2-((4-(2-(4-chloro-2-fluorophenyl)-2-methylbenzo[d][1,3]dioxol-4-yl)piperidin-1-yl)methyl)-1-(2-(trifluoromethoxy)ethyl)-1H-imidazol-5-yl)acrylic acid] | 160
12 | CC1(c2ccc(Cl)cc2F)Oc2cccc(C3CCN(Cc4ncc(/C=C/C(=O)O)n4Cc4cccnc4C(F)(F)F)CC3)c2O1 (stereo not drawn) [Compound 146, (E)-3-(2-((4-(2-(4-chloro-2-fluorophenyl)-2-methylbenzo[d][1,3]dioxol-4-yl)piperidin-1-yl)methyl)-1-((2-(trifluoromethyl)pyridin-3-yl)methyl)-1H-imidazol-5-yl)acrylic acid] | 1900
13 | Cc1ncccc1Cn1c(/C=C/C(=O)O)cnc1CN1CCC(c2cccc3c2OC(C)(c2ccc(Cl)cc2F)O3)CC1 (stereo not drawn) [Compound 147, (E)-3-(2-((4-(2-(4-chloro-2-fluorophenyl)-2-methylbenzo[d][1,3]dioxol-4-yl)piperidin-1-yl)methyl)-1-((2-methylpyridin-3-yl)methyl)-1H-imidazol-5-yl)acrylic acid] | 45
14 | CCc1ncccc1Cn1c(/C=C/C(=O)O)cnc1CN1CCC(c2cccc3c2OC(C)(c2ccc(Cl)cc2F)O3)CC1 (stereo not drawn) [Compound 148, (E)-3-(2-((4-(2-(4-chloro-2-fluorophenyl)-2-methylbenzo[d][1,3]dioxol-4-yl)piperidin-1-yl)methyl)-1-((2-ethylpyridin-3-yl)methyl)-1H-imidazol-5-yl)acrylic acid] | 980
15 | COc1cccc(Cn2c(/C=C/C(=O)O)cnc2CN2CCC(c3cccc4c3OC(C)(c3ccc(Cl)cc3F)O4)CC2)c1 (stereo not drawn) [Compound 149, (E)-3-(2-((4-(2-(4-chloro-2-fluorophenyl)-2-methylbenzo[d][1,3]dioxol-4-yl)piperidin-1-yl)methyl)-1-(3-methoxybenzyl)-1H-imidazol-5-yl)acrylic acid] | 120

The remaining lines, values ahead:

Row | EC50 [pM] | SMILES
16 | 33 | C[C@]1(c2ccc(Cl)cc2F)Oc2cccc(C3CCN(Cc4ncc(/C=C/C(=O)O)n4C[C@@H]4CCO4)CC3)c2O1 [Compound 135a, (E)-3-(2-((4-((S)-2-(4-chloro-2-fluorophenyl)-2-methylbenzo[d][1,3]dioxol-4-yl)piperidin-1-yl)methyl)-1-(((S)-oxetan-2-yl)methyl)-1H-imidazol-5-yl)acrylic acid]
17 | 15000 | C[C@@]1(c2ccc(Cl)cc2F)Oc2cccc(C3CCN(Cc4ncc(/C=C/C(=O)O)n4C[C@@H]4CCO4)CC3)c2O1 [Compound 135b, (E)-3-(2-((4-((R)-2-(4-chloro-2-fluorophenyl)-2-methylbenzo[d][1,3]dioxol-4-yl)piperidin-1-yl)methyl)-1-(((S)-oxetan-2-yl)methyl)-1H-imidazol-5-yl)acrylic acid]
18 | 110 | CC1(c2ccc(Cl)cc2F)Oc2cccc(C3CCN(Cc4nnc(/C=C/C(=O)O)n4C[C@@H]4CCO4)CC3)c2O1 (stereo partly drawn) [Compound 136a, (E)-3-(5-((4-(2-(4-chloro-2-fluorophenyl)-2-methylbenzo[d][1,3]dioxol-4-yl)piperidin-1-yl)methyl)-4-(((S)-oxetan-2-yl)methyl)-4H-1,2,4-triazol-3-yl)acrylic acid]
19 | 300 | C/C(=C\c1nnc(CN2CCC(c3cccc4c3OC(C)(c3ccc(Cl)cc3F)O4)CC2)n1C[C@@H]1CCO1)C(=O)O (stereo partly drawn) [Compound 137a, (E)-3-(5-((4-(2-(4-chloro-2-fluorophenyl)-2-methylbenzo[d][1,3]dioxol-4-yl)piperidin-1-yl)methyl)-4-(((S)-oxetan-2-yl)methyl)-4H-1,2,4-triazol-3-yl)-2-methylacrylic acid]
20 | 2.3 | CCn1cncc1Cn1c(/C=C(\C)C(=O)O)cnc1CN1CCC(c2cccc3c2O[C@@](C)(c2ccc(Cl)cc2F)O3)CC1 [Compound 138a, (S,E)-3-(2-((4-(2-(4-chloro-2-fluorophenyl)-2-methylbenzo[d][1,3]dioxol-4-yl)piperidin-1-yl)methyl)-1-((1-ethyl-1H-imidazol-5-yl)methyl)-1H-imidazol-5-yl)-2-methylacrylic acid]
21 | 660 | CCn1cncc1Cn1c(/C=C(\C)C(=O)O)cnc1CN1CCC(c2cccc3c2O[C@](C)(c2ccc(Cl)cc2F)O3)CC1 [Compound 138b, (R,E)-3-(2-((4-(2-(4-chloro-2-fluorophenyl)-2-methylbenzo[d][1,3]dioxol-4-yl)piperidin-1-yl)methyl)-1-((1-ethyl-1H-imidazol-5-yl)methyl)-1H-imidazol-5-yl)-2-methylacrylic acid]
22 | 1.2 | CCn1cncc1Cn1c(/C=C/C(=O)O)cnc1CN1CCC(c2cccc3c2O[C@@](C)(c2ccc(Cl)cc2F)O3)CC1 [Compound 139a, (S,E)-3-(2-((4-(2-(4-chloro-2-fluorophenyl)-2-methylbenzo[d][1,3]dioxol-4-yl)piperidin-1-yl)methyl)-1-((1-ethyl-1H-imidazol-5-yl)methyl)-1H-imidazol-5-yl)acrylic acid]
23 | 200 | CCn1cncc1Cn1c(/C=C/C(=O)O)cnc1CN1CCC(c2cccc3c2O[C@](C)(c2ccc(Cl)cc2F)O3)CC1 [Compound 139b, (R,E)-3-(2-((4-(2-(4-chloro-2-fluorophenyl)-2-methylbenzo[d][1,3]dioxol-4-yl)piperidin-1-yl)methyl)-1-((1-ethyl-1H-imidazol-5-yl)methyl)-1H-imidazol-5-4)acrylic acid]
24 | 90 | CC1(c2ccc(Cl)cc2F)Oc2cccc(C3CCN(Cc4ncc(/C=C/C(=O)O)n4C[C@@H]4CCCO4)CC3)c2O1 (stereo partly drawn) [Compound 140a, (E)-3-(2-((4-(2-(4-chloro-2-fluorophenyl)-2-methylbenzo[d][1,3]dioxol-4-yl)piperidin-1-yl)methyl)-1-(((S)-tetrahydrofuran-2-yl)methyl)-1H-imidazol-5-yl)acrylic acid]
